Values joined by “and” are separate entries in the source; they are usually repeats but may differ in a detail not shown here. Equal values may be shown once.
Details: Liquid; for mass density: Vibrating tube method; for electrical conductivity: electrochemical impedance spectroscopy

CCCCC[P+](CC)(CC)CC.O=S(=O)([N-]S(=O)(=O)C(F)(F)F)C(F)(F)F
Details | electrical conductivity | mass density
343.15 K, 45000 kPa | – | 1298.89 kg/m3
343.15 K, 50000 kPa | – | 1302.23 kg/m3
348.15 K, 101.33 kPa | 0.885 S/m and 0.887 S/m | –
348.16 K, 101.33 kPa | 0.877 S/m | –
353.15 K, 100 kPa | – | 1256.32 kg/m3 [middle of 5 runs]
353.15 K, 101.33 kPa | 0.999 S/m and 1 S/m | –
353.15 K, 1000 kPa | – | 1256.5 kg/m3
353.15 K, 5000 kPa | – | 1260.01 kg/m3
353.15 K, 10000 kPa | – | 1264.27 kg/m3
353.15 K, 15000 kPa | – | 1268.38 kg/m3
353.15 K, 20000 kPa | – | 1272.39 kg/m3
353.15 K, 25000 kPa | – | 1276.24 kg/m3
353.15 K, 30000 kPa | – | 1280.04 kg/m3
353.15 K, 35000 kPa | – | 1283.68 kg/m3
353.15 K, 40000 kPa | – | 1287.28 kg/m3
353.15 K, 45000 kPa | – | 1290.77 kg/m3
353.15 K, 50000 kPa | – | 1294.22 kg/m3
363.15 K, 100 kPa | – | 1248.72 kg/m3 [middle of 4 runs]

Details | electrical conductivity [S/m] | viscosity
348.14 K, 10700 kPa, Frequency=0 MHz | 0.8 | –
348.14 K, 225100 kPa, Frequency=0 MHz | 0.167 | –
348.15 K, 100 kPa, Falling or rolling sphere viscometry | – | 13.81 mPa·s [middle of 7 runs]
348.15 K, 600 kPa, Falling or rolling sphere viscometry | – | 13.91 mPa·s
348.15 K, 1100 kPa, Frequency=0 MHz | 0.871 | –
348.15 K, 1700 kPa, Frequency=0 MHz | 0.865 | –
348.15 K, 3100 kPa, Frequency=0 MHz | 0.855 | –
348.15 K, 5100 kPa, Frequency=0 MHz | 0.84 | –
348.15 K, 10500 kPa, Falling or rolling sphere viscometry | – | 15.46 mPa·s
348.15 K, 15700 kPa, Frequency=0 MHz | 0.766 | –
348.15 K, 20600 kPa, Falling or rolling sphere viscometry | – | 17.36 mPa·s
348.15 K, 20800 kPa, Frequency=0 MHz | 0.734 | –
348.15 K, 25700 kPa, Frequency=0 MHz | 0.704 | –
348.15 K, 30600 kPa, Falling or rolling sphere viscometry | – | 18.78 mPa·s
348.15 K, 30800 kPa, Frequency=0 MHz | 0.675 | –
348.15 K, 40200 kPa, Frequency=0 MHz | 0.625 | –
348.15 K, 40700 kPa, Falling or rolling sphere viscometry | – | 20.72 mPa·s
348.15 K, 50700 kPa, Falling or rolling sphere viscometry | – | 22.73 mPa·s
348.15 K, 51400 kPa, Falling or rolling sphere viscometry | – | 22.92 mPa·s
348.15 K, 60700 kPa, Falling or rolling sphere viscometry | – | 25.33 mPa·s
348.15 K, 70400 kPa, Falling or rolling sphere viscometry | – | 27.64 mPa·s
348.15 K, 76000 kPa, Frequency=0 MHz | 0.473 | –
348.15 K, 80600 kPa, Falling or rolling sphere viscometry | – | 29.75 mPa·s
348.15 K, 89800 kPa, Falling or rolling sphere viscometry | – | 32.25 mPa·s
348.15 K, 99100 kPa, Falling or rolling sphere viscometry | – | 34.86 mPa·s
348.15 K, 100500 kPa, Falling or rolling sphere viscometry | – | 35.04 mPa·s
348.15 K, 125700 kPa, Falling or rolling sphere viscometry | – | 42.64 mPa·s
348.15 K, 126600 kPa, Falling or rolling sphere viscometry | – | 43.88 mPa·s
348.15 K, 126600 kPa, Frequency=0 MHz | 0.326 | –
348.15 K, 150600 kPa, Falling or rolling sphere viscometry | – | 52.08 mPa·s
348.15 K, 150800 kPa, Falling or rolling sphere viscometry | – | 52.23 mPa·s
348.15 K, 152400 kPa, Frequency=0 MHz | 0.272 | –
348.15 K, 175600 kPa, Falling or rolling sphere viscometry | – | 63.12 mPa·s
348.15 K, 199600 kPa, Falling or rolling sphere viscometry | – | 75.5 mPa·s
348.15 K, 200900 kPa, Frequency=0 MHz | 0.196 | –
348.15 K, 237000 kPa, Falling or rolling sphere viscometry | – | 99.1 mPa·s
348.15 K, 242900 kPa, Falling or rolling sphere viscometry | – | 104.9 mPa·s
348.15 K, 250900 kPa, Frequency=0 MHz | 0.141 | –
348.16 K, 100 kPa, Frequency=0 MHz | 0.877 | –
348.16 K, 50000 kPa, Frequency=0 MHz | 0.577 | –
348.16 K, 103000 kPa, Frequency=0 MHz | 0.384 | –
348.16 K, 176100 kPa, Frequency=0 MHz | 0.231 | –
353.15 K, 100 kPa, Concentric cylinders viscometry | – | 12.27 mPa·s
353.15 K, 100 kPa, Falling or rolling sphere viscometry | – | 12 mPa·s and 11.96 mPa·s
363.15 K, 100 kPa, Concentric cylinders viscometry | – | 9.672 mPa·s
363.15 K, 100 kPa, Falling or rolling sphere viscometry | – | 9.358 mPa·s and 9.337 mPa·s and 9.414 mPa·s
363.15 K, 9700 kPa, Falling or rolling sphere viscometry | – | 10.37 mPa·s
363.15 K, 20100 kPa, Falling or rolling sphere viscometry | – | 11.57 mPa·s
363.15 K, 20500 kPa, Falling or rolling sphere viscometry | – | 11.52 mPa·s
363.15 K, 30200 kPa, Falling or rolling sphere viscometry | – | 12.72 mPa·s
363.15 K, 39200 kPa, Falling or rolling sphere viscometry | – | 13.83 mPa·s
363.15 K, 49400 kPa, Falling or rolling sphere viscometry | – | 15.21 mPa·s
363.15 K, 59100 kPa, Falling or rolling sphere viscometry | – | 16.63 mPa·s
363.15 K, 80200 kPa, Falling or rolling sphere viscometry | – | 19.84 mPa·s
363.15 K, 102200 kPa, Falling or rolling sphere viscometry | – | 23.51 mPa·s
363.15 K, 102500 kPa, Falling or rolling sphere viscometry | – | 23.47 mPa·s
363.15 K, 124000 kPa, Falling or rolling sphere viscometry | – | 27.54 mPa·s
363.15 K, 125400 kPa, Falling or rolling sphere viscometry | – | 27.86 mPa·s
363.15 K, 147300 kPa, Falling or rolling sphere viscometry | – | 32.93 mPa·s
363.15 K, 149300 kPa, Falling or rolling sphere viscometry | – | 33.43 mPa·s
363.15 K, 172900 kPa, Falling or rolling sphere viscometry | – | 39.05 mPa·s
363.15 K, 200700 kPa, Falling or rolling sphere viscometry | – | 47.56 mPa·s
363.15 K, 212300 kPa, Falling or rolling sphere viscometry | – | 51.41 mPa·s

Source: the NIST ThermoML archive (doi:10.1021/acs.jced.8b00011)
